The subject of test [1] is human LB EBV-transformed lymphoblasts. Put plainly: Neu5Gc/Neu5Ac feeding experiment, human lymphoblasts. The test is classed as cell-based. The following applies: human lymphoblasts fed 3 mM for 3 days. How it is done: Cell Culture—Caco-2 cells were propagated in alpha-MEM containing GLUTAMAX™ (Invitrogen, San Diego, Calif.) and a mixture of ribonucleosides and deoxyribonucleosides (Gibco/Invitrogen, San Diego, Calif.) supplemented with 20% FCS. All the fibroblast cell lines and CHO-K1 cells were cultured in the same media supplemented respectively with 15% non-heat inactivated FCS or 10% heat inactivated FCS. Chimpanzee Fred and human LB EBV-transformed lymphoblasts were cultured in RPMI-1640 (Gibco/Invitrogen, San Diego, Calif.) supplemented with 10% heat inactivated FCS or 15% human serum. All of the cultures were maintained at 37° C., 5% CO2 atmosphere. In order to deplete any remaining Neu5Gc from FCS, the cells were split and cultured prior to Neu5Gc feeding experiments for at least 4 days in alpha-MEM supplemented with an adequate percentage of heat-inactivated premium human serum instead of FCS. The cells were then maintained under the same conditions during the whole feeding experiment. The human serum was heat inactivated at 56° C. for 30 min. before use.
Neu5Gc and ManNGc Feeding Experiment—Neu5Ac, Neu5Gc or ManNGc were dried, dissolved in the appropriate media supplemented with heat-inactivated human serum, sterilized using a Spin-X® (Corning Inc., Corning, N.Y.) and then added to the cells. The pH of the media containing Sia was adjusted to neutrality using sterilized 1M NaOH before starting the feeding experiment. Cells were cultured in the presence of up to 3 mM free Sia or ManNGc for 1 or 3 days at 37° C. […]
Fractionation of the Labeled Cells—Washed cell pellets were sonicated into 500 μL of 20 mM sodium phosphate buffer or 20 mM Tris-HCl, pH 7.5, using 4×15 second pulses of a sonicator cell disrupter, model Some Dismembrator (Fisher Scientific, Hampton, N.J.) at a probe setting of 3. […] The pellet contained <5% of the incorporated sialic acid as determined using a radioactive tracer (data not shown.) The supernatant was therefore considered as the “total homogenate” fraction. A portion (20%) of the “total homogenate” fraction was taken for protein quantification and Sia analysis by DMB derivatization and HPLC analysis (as discussed below.) The remainder was centrifuged at 100,000×g for 1 h. […] All the Sias in these fractions were released with mild acid hydrolysis if necessary and then analyzed by HPLC after DMB derivatization. Protein quantification was performed on the total homogenate, membrane and soluble protein fractions by using the BCA protein assay kit from Pierce (Rockford, Ill.) In some experiments, the resulting data obtained for the Sia bound to the membrane fraction and to the soluble proteins were pooled and presented here as a High Molecular Weight (HMW) fraction. […]

Test [2] has as its system normal human skin fibroblasts. Kind of test: Neu5Gc/ManNGc feeding experiment, normal (WT) fibroblasts, DMB-HPLC. It is filed as cell-based. How it is done: (§1) Neu5Gc and ManNGc Feeding Experiment—Neu5Ac, Neu5Gc or ManNGc were dried, dissolved in the appropriate media supplemented with heat-inactivated human serum, sterilized using a Spin-X® (Corning Inc., Corning, N.Y.) and then added to the cells. The pH of the media containing Sia was adjusted to neutrality using sterilized 1M NaOH before starting the feeding experiment. Cells were cultured in the presence of up to 3 mM free Sia or ManNGc for 1 or 3 days at 37° C. At the end of the feeding, cells were washed with cold PBS, harvested either by scraping or with 2 mM EDTA for fibroblasts, and washed again with cold PBS prior to fractionation.
Fractionation of the Labeled Cells—Washed cell pellets were sonicated into 500 μL of 20 mM sodium phosphate buffer or 20 mM Tris-HCl, pH 7.5, using 4×15 second pulses of a sonicator cell disrupter, model Some Dismembrator (Fisher Scientific, Hampton, N.J.) at a probe setting of 3. The sonicate was centrifuged at 75×g for 15 min., and the pellet Obtained consisted primarily of nuclei and unbroken cells. The pellet contained <5% of the incorporated sialic acid as determined using a radioactive tracer (data not shown.) The supernatant was therefore considered as the “total homogenate” fraction. A portion (20%) of the “total homogenate” fraction was taken for protein quantification and Sia analysis by DMB derivatization and HPLC analysis (as discussed below.) The remainder was centrifuged at 100,000×g for 1 h. The resulting pellet, called the “membrane” fraction, was then resuspended by sonication (15 sec.) in 200 μl of sodium acetate buffer, pH 5.5. The 100,000×g supernatant, called the “soluble” fraction was adjusted to 90% ethanol using absolute ice-cold ethanol, and placed overnight at −20° C. The flocculant precipitate, which represents the “soluble protein” fraction, was washed 3 times with 90%® ice-cold ethanol and then resuspended in 200 μl of water. The supernatant fluid representing the cytosolic low molecular weight (LMW) fraction was dried and brought up in 100 μL with water prior to Sia analysis. All the Sias in these fractions were released with mild acid hydrolysis if necessary and then analyzed by HPLC after DMB derivatization. Protein quantification was performed on the total homogenate, membrane and soluble protein fractions by using the BCA protein assay kit from Pierce (Rockford, Ill.) In some experiments, the resulting data obtained for the Sia bound to the membrane fraction and to the soluble proteins were pooled and presented here as a High Molecular Weight (HMW) fraction.
Sialic Acid Release, DMB Derivatization and HPLC Analysis—The bound Sias from the total homogenate, membrane and soluble protein fractions were released using 2M acetic acid hydrolysis, 3 h. at 80° C. The released Sias, or free Sias, contained in the soluble LMW fraction were passed through a Microcon® YM-10 filter (Millipore, Bedford, Mass.) prior to DMB derivatization, which was done according to Hara et al., 1989. DMB-Sia derivatives from the different fractions were then analyzed by HPLC using a C18 column (Microsorb MV-TM 100 A, Varian, Palo Alto, Calif.) Isocratic elution was achieved using 7% methanol, 8% acetonitrile in water during 50 min. at 0.9 ml/min flow. The eluant was monitored by fluorescence.
Quantification of Sias—For all HPLC chromatograms, the quantification of Sias was done by comparison with known quantities of DMB derivatized Neu5Gc and Neu5Ac used as standards and then reported in terms of pmoles of Sia. […]

The subject of test [3] is Caco-2 cells. Put plainly: Neu5Gc feeding experiment, Neu5Gc in subcellular fractions by DMB-HPLC. It is filed as cell-based, human. The following applies: fed 3 mM for 3 days. On the procedure:
as §1
Fractionation of the Labeled Cells—Washed cell pellets were sonicated into 500 μL of 20 mM sodium phosphate buffer or 20 mM Tris-HCl, pH 7.5, using 4×15 second pulses of a sonicator cell disrupter, model Some Dismembrator (Fisher Scientific, Hampton, N.J.) at a probe setting of 3. The sonicate was centrifuged at 75×g for 15 min., and the pellet Obtained consisted primarily of nuclei and unbroken cells. The pellet contained <5% of the incorporated sialic acid as determined using a radioactive tracer (data not shown.) The supernatant was therefore considered as the “total homogenate” fraction. A portion (20%) of the “total homogenate” fraction was taken for protein quantification and Sia analysis by DMB derivatization and HPLC analysis (as discussed below.) The remainder was centrifuged at 100,000×g for 1 h. The resulting pellet, called the “membrane” fraction, was then resuspended by sonication (15 sec.) in 200 μl of sodium acetate buffer, pH 5.5. […] All the Sias in these fractions were released with mild acid hydrolysis if necessary and then analyzed by HPLC after DMB derivatization. Protein quantification was performed on the total homogenate, membrane and soluble protein fractions by using the BCA protein assay kit from Pierce (Rockford, Ill.) In some experiments, the resulting data obtained for the Sia bound to the membrane fraction and to the soluble proteins were pooled and presented here as a High Molecular Weight (HMW) fraction. […]

Another test relates to chimpanzee lymphoblasts. Kind of test: Neu5Gc/Neu5Ac feeding experiment, chimpanzee lymphoblasts. The test is classed as cell-based. The following applies: chimpanzee lymphoblasts fed 3 mM for 3 days.
In test [4] the test system is Human neuroblastoma cells. Put plainly: Neu5Gc feeding experiment, neuroblastoma cells. The test is classed as cell-based. The settings on record: fed 3 mM for 3 days. On the procedure:
as §1
Fractionation of the Labeled Cells—Washed cell pellets were sonicated into 500 μL of 20 mM sodium phosphate buffer or 20 mM Tris-HCl, pH 7.5, using 4×15 second pulses of a sonicator cell disrupter, model Some Dismembrator (Fisher Scientific, Hampton, N.J.) at a probe setting of 3. […] The pellet contained <5% of the incorporated sialic acid as determined using a radioactive tracer (data not shown.) The supernatant was therefore considered as the “total homogenate” fraction. A portion (20%) of the “total homogenate” fraction was taken for protein quantification and Sia analysis by DMB derivatization and HPLC analysis (as discussed below.) The remainder was centrifuged at 100,000×g for 1 h. […]

For test [5], the system named is Caco-2 cells. Kind of test: Endocytosis inhibition experiments (Neu5Gc incorporation). It is filed as cell-based, human. The settings on record: Caco-2, 2 h pre-treatment with drug, then 3 mM Neu5Gc. How it is done:
The sonicate was centrifuged at 75×g for 15 min., and the pellet Obtained consisted primarily of nuclei and unbroken cells. […] A portion (20%) of the “total homogenate” fraction was taken for protein quantification and Sia analysis by DMB derivatization and HPLC analysis (as discussed below.) The remainder was centrifuged at 100,000×g for 1 h. The resulting pellet, called the “membrane” fraction, was then resuspended by sonication (15 sec.) in 200 μl of sodium acetate buffer, pH 5.5. The 100,000×g supernatant, called the “soluble” fraction was adjusted to 90% ethanol using absolute ice-cold ethanol, and placed overnight at −20° C. The flocculant precipitate, which represents the “soluble protein” fraction, was washed 3 times with 90%® ice-cold ethanol and then resuspended in 200 μl of water. The supernatant fluid representing the cytosolic low molecular weight (LMW) fraction was dried and brought up in 100 μL with water prior to Sia analysis. All the Sias in these fractions were released with mild acid hydrolysis if necessary and then analyzed by HPLC after DMB derivatization. Protein quantification was performed on the total homogenate, membrane and soluble protein fractions by using the BCA protein assay kit from Pierce (Rockford, Ill.) In some experiments, the resulting data obtained for the Sia bound to the membrane fraction and to the soluble proteins were pooled and presented here as a High Molecular Weight (HMW) fraction. Sialic Acid Release, DMB Derivatization and HPLC Analysis—The bound Sias from the total homogenate, membrane and soluble protein fractions were released using 2M acetic acid hydrolysis, 3 h. at 80° C. The released Sias, or free Sias, contained in the soluble LMW fraction were passed through a Microcon® YM-10 filter (Millipore, Bedford, Mass.) prior to DMB derivatization, which was done according to Hara et al., 1989. […] The eluant was monitored by fluorescence. Quantification of Sias—For all HPLC chromatograms, the quantification of Sias was done by comparison with known quantities of DMB derivatized Neu5Gc and Neu5Ac used as standards and then reported in terms of pmoles of Sia. For total homogenate, membrane and cytosolic protein fractions, this number was expressed per mg of protein. Due to minor sample-to-sample variations in amounts and recoveries, the data in the Figures is presented as percent of Neu5Gc over total Sias, rather than as absolute amounts. Endocytosis Inhibition Experiments—Caco-2 or normal fibroblast cells were split and cultured in alpha-MEM media supplemented respectively with 20% or 15% human serum for 4 days before starting the endocytosis drug inhibition experiments in order to deplete any Neu5Gc derived from FCS. Cells were then pre-treated for 2 h. with the specific inhibitors under the same culture conditions. Fresh media containing the same amount of inhibitor and 3 mM of Neu5Gc was then added to the cells, which were incubated for 16 h or 3 days and finally harvested and fractionated as described above.

[6] abbreviates: human normal fibroblasts after 3 mM Neu5Gc feeding, 3 days.

Structures are written as SMILES.

Regarding `O=C(CO)N[C@H]1[C@H]([C@H](O)[C@H](O)CO)OC(O)(C(=O)O)C[C@@H]1O` (some centres unmarked) [Neu5Gc, N-glycolylneuraminic acid], in test [1], the “Neu5Gc (percent of total Sia), HMW fraction” value was found to be 51%; the “Neu5Gc (percent of total Sia), LMW cytosolic fraction” value stood at 80%; the “Neu5Gc (percent of total Sia), TH fraction” value is on record as 67%. Besides, in test [2] (setting [6]), the “Neu5Gc (percent of total Sia), HMW fraction” value is 39%; the “Neu5Gc (percent of total Sia), TH fraction” value came out at 28%; the “Neu5Gc (percent of total Sia), cytosolic LMW fraction” value was 41%. Further, in test [2] (normal wild-type (WT) fibroblasts, fed 3 mM for 3 days), the “percent of Neu5Gc in membrane-bound glycoconjugates” value is listed as 37%. For the same compound, in the test on Caco-2 cells [3], the “Neu5Gc (percent of total Sia), cytosolic low molecular weight (LMW) fraction” value stood at 70%; the “Neu5Gc (percent of total Sia), high molecular weight fraction (HMW)” value is 46%; the “Neu5Gc (percent of total Sia), total homogenate (TH)” value was 58%. Further, the “Neu5Gc (percent of total Sia), TH fraction” value in the test with chimpanzee lymphoblasts (non-fed baseline 57%) is 70%. In the test on chimpanzee lymphoblasts (non-fed baseline 66%), the “Neu5Gc (percent of total Sia), HMW fraction” value is 72%. The “Neu5Gc (percent of total Sia), LMW fraction” value with chimpanzee lymphoblasts (non-fed baseline 70%) was determined as 84%. For the same compound, the Neu5Gc incorporation efficiency result in test [4] is recorded as “efficiency comparable to the Caco-2 cells”.

On to `N=C(N)NC(=O)c1nc(Cl)c(N)nc1N` [amiloride], for which the “Neu5Gc incorporation into membrane-bound glycoconjugates in the presence of inhibitor” value in the test with Caco-2 cells [5] is listed as 10%.

On to `O=c1c(-c2ccc(O)cc2)coc2cc(O)cc(O)c12` [genistein], for which, in the test on Caco-2 cells [5], the “Neu5Gc incorporation into membrane-bound glycoconjugates in the presence of inhibitor” value was determined as 34% and the “incorporation of Neu5Gc in the TH fraction in the presence of inhibitor” value is listed as 51%.

These data come from patent US8232448B2, “Transgenic mouse with a homozygous mutation in the CMAH gene” (The Regents of the University of California, priority 2005, dated 2012).
